Where two headings read alike, the source gives them in different places. Peptide text beside a SMILES is read from it. * marks the point of attachment. Cbz = O=C(OCc1ccccc1)*; CH2F = FC*
Columns and labels:
SARS-CoV-2 3CL protease [1] = target: T1, SARS-CoV-2 3CL protease (Severe acute respiratory syndrome coronavirus 2, UniProt P0DTD1); type: biochemical; details: read-out: IC50, 3CL protease assay
SARS-CoV-2 live virus = assay: microbe, parasite or virus in culture; type: cell-based
SARS-CoV-2 3CL protease [2] = target: T1, SARS-CoV-2 3CL protease; details: read-out: IC50, 3CL protease; finding of Sun et al.; cited from earlier work
[3] = test system: SARS-CoV-2 PP entry into HEK293-ACE2 cells; assay: microbe, parasite or virus in culture; type: cell-based
[4] = read-out: AC50 (potency), CPE assay
[5] = Severe acute respiratory syndrome coronavirus 2, read-out: IC50, PP entry assay
[6] = Severe acute respiratory syndrome coronavirus 2, read-out: AC50 (potency), CPE assay

Row | SMILES | AC50 (SARS-CoV-2 live virus; [4]) [µM] | efficacy, PP entry assay [3] [%] | IC50 [3, 5] [µM] | other results
1 | C=C(c1ccc(C(=O)O)c(F)c1)c1cc2c(cc1C)C(C)(C)CCC2(C)C [NCGC00371011, Fluorobexarotene] |  |  |  | IC50 (SARS-CoV-2 3CL protease [1]): 28.9 ± 2.35 µM
2 | COc1ccc(C(C)(C)C)cc1CN[C@H]1C2CCN(CC2)[C@H]1C(c1ccccc1)c1ccccc1 [NCGC00390625, Maropitant] | 3.55 ± 1.12 |  |  | 
3 | OC(c1cc(-c2ccc(Cl)cc2)nc2ccccc12)C1CCCCN1 (centres unmarked) [NCGC00482724, Vacquinol-1] | < 5 |  |  | 
4 | COC(=O)C[C@H](NC(=O)[C@H](CCSC)NC(=O)[C@H](CCC(N)=O)NC(=O)[C@H](CC(=O)OC)NC(=O)OCc1ccccc1)C(=O)CF [NCGC00390337, Z-DQMD-FMK] (Cbz-D(OMe)QMD(OMe)-CH2F) |  |  |  | IC50 (SARS-CoV-2 3CL protease [1]): 0.92 µM; IC50 (SARS-CoV-2 3CL protease [2]): 0.94 µM
5 | CCN(CC)CCCNc1ccnc2cc(Cl)ccc12 [NCGC00599688, AQ-13] | 3.98 |  |  | IC50 ([3]; read-out: IC50, PP entry assay): 14.2 ± 11.7 µM
6 | COc1ccc2cc1Oc1ccc(cc1)C[C@H]1c3c(cc4c(c3Oc3cc5c(cc3OC)CCN(C)[C@@H]5C2)OCO4)CCN1C [NCGC00161621, Cepharanthine] |  | 102 | 6.88 | AC50 (SARS-CoV-2 live virus; [6]): 1.41 ± 0.39 µM
7 | O=C(NCc1ccccc1)[C@H](Cc1ccccc1)NC(=O)[C@H]1O[C@@H]1C(=O)NCCc1ccc(O)cc1 [NCGC00345807, CAA-0225] | 0.2 ± 0.07 | 89 |  | IC50 ([3]; read-out: IC50, PP entry assay): 0.6 µM
8 | CCN(CC)Cc1cc(Nc2ccnc3cc(Cl)ccc23)ccc1O [NCGC00017063, Amodiaquine] |  | 103 | 19 | AC50 (SARS-CoV-2 live virus; [6]): 4.14 ± 1.41 µM
9 | Nc1nc(Nc2ccc3c(c2)CC[C@@H](N2CCCC2)CC3)nn1-c1cc2c(nn1)-c1ccccc1CCC2 [NCGC00386665, Bemcentinib] |  | 112 | 19 | AC50 (SARS-CoV-2 live virus; [6]): 3.36 µM
10 | CCN(CC)CCCCNc1nc2cc(Cl)c(Cl)cc2nc1-c1ccc(-c2cccs2)s1 [NCGC00263128, PD 0220245] | < 5 |  |  | 
11 | CC[C@@]1(O)C(=O)OCc2c1cc1n(c2=O)Cc2c-1nc1cc(F)c(C)c3c1c2[C@@H](N)CC3 [NCGC00390584, Exatecan] |  |  | 0.0031 | 
12 | COc1ccc(-c2cc3c(nc2-c2ccccc2)nc(C(=O)NCCN(C)C)n3C)cn1 [NCGC00417833] | 22 |  |  | 
13 | CCCc1cc(C)[nH]c(=O)c1CNC(=O)c1cc(-c2ccc(N3CCN(C)CC3)nc2)nc2c1cnn2C(C)C [NCGC00590975, JQEZ5] | < 5 |  |  | 
